Source: patent publication US20200368166A1, “Oral Formulations And Uses Thereof” (Eustralis Pharmaceuticals Limited (Trading As Pressura …, priority 2018, published 2020)
“And” between values parts separate entries of the source, which are not always exact repeats. Identical values can stand only once.

Assays:
Type in all cases: physicochemical
pH of the API = assay: pH of the API
Source text: Compound (Ia) HCl (API) is an acidic compound with an approximate pH of 2.5. Compound of Formula (I), in particular compound (Ia) as shown below, is used in all examples, and in particular the 2HCl salt of compound (Ia) (Compound (Ia) 2HCl).

[1] = Solubility in dissolution media (sink conditions test); details: 37° C.
Procedure: Selection of the dissolution medium is based on the solubility data and the dose range in order to ensure that sink conditions are met. The term ‘sink conditions’ is defined as the volume of medium at least greater than three times that required to form a saturated solution of drug substance.
The sink conditions test was performed as per USP 38 <1092> in the following dissolution medium: • 1. HCl 0.01 N, • 2. Buffer pH 6.8, • 3. Water.
Solubility determinations were performed on 75 mg of Compound (Ia) HCl dissolved in 250 mL of different media at 37° C. and stirred slightly. The λmax was determined by UV scan between 200-400 nm. Refer to Table 18 for the results.

[2] = Particle size distribution (Malvern Mastersizer)
Procedure: The particle size distribution of compound (Ia) 2HCl (API) was determined using a Malvern Mastersizer. D(0.1) means that 10% of the sample is present as particles smaller than this size. D(0.5) means that 50% of the sample is present as particles smaller than this size. D(0.9) means that 90% of the sample is present as particles smaller than this size.

[3] = Intrinsic dissolution rate (IDR) of compressed disc; details: 200 mg disc, 100 rpm, 37° C.
Procedure: The IDR is determined by monitoring the drug release rate of a compressed disc of the pre-formulated drug. The IDR is independent of formulation effects and measures the intrinsic properties of the drug and salts as a function of dissolution media effects such as pH and ionic strength. A comparison of the IDR of the drug in water with that obtained in acid and alkali will provide a measure of the drug's ability to control its immediate microenvironment.
The IDR was determined by preparing a compressed disc containing 200 mg of Compound (Ia) 2HCl using slow compression. All metal surfaces were pre-lubricated using 4 drops of a 5% w/v solution of stearic acid in chloroform. The solvent was allowed to evaporate, the Compound (Ia) 2HCl added and the sample slowly compressed to 6 tonne. This pressure was maintained for 4 minutes to ensure adequate compression.
The discs were then rotated at 100 rpm, 25 mm from the bottom of a 1 litre flat bottomed dissolution vessel containing 1 litre of fluid maintained at 37° C. Manual sampling, with a sampling volume of 5 mL, was employed at 5, 10, 15, 30 and 60 minutes. The amount of drug released was then monitored, by HPLC. Compound (Ia) 2HCl was evaluated in 0.01N HCl (equivalent to gastric pH), phosphate buffer pH 6.8 (intestinal) and distilled water. Refer Table 19 for the percentage of Compound (Ia) 2HCl released.

[4] = Bulk and tap density, Carr's index
Procedure: Measurement of the bulk and tap density provides information on the flow properties and compressibility of the API. The bulk density is measured as the density of the material as it is “poured” or passively filled into a measuring vessel, whereas the tap density is a limiting density attained after “tapping in” the material. A Carr's index greater than 25 is considered to be an indication of poor flowability, and below 15, of good flowability.
Measurement of the bulk and tap density provides information on the flow and compressibility of the blend. Bulk and tap density and the subsequent Carr's index were determined on the Formulation 5 blend and the results are given in Table 13.

[5] = API milled prior to GLP tablet manufacture (Table 16)

approximate pH (pH of the API): ~2.5
Appearance ([1]; 75 mg in 250 mL 0.01N Hydrochloric Acid (pH 2.0), full cell: Clear, homogeneous, translucent to light yellow.): Clear,
Appearance ([1]; 75 mg in 250 mL Phosphate Buffer (pH 6.8), full cell: White, turbid, heterogeneous liquid.): White, turbid,
Time to Dissolve ([1]; 75 mg in 250 mL Purified Water): 21 s
Appearance ([1]; 75 mg in 250 mL Purified Water, full cell: Clear, homogeneous, translucent to light yellow.): Clear,
Particle Size D (0.1) ([2]; API before milling (Table 1)): 8.41 μm
Particle Size D (0.5) ([2]; API before milling (Table 1)): 76.13 μm
Particle Size D (0.9) ([2]; API before milling (Table 1)): 404.59 μm
Particle Size D (0.1) [2, 5]: 1.2 μm
Particle Size D (0.5) [2, 5]: 38.6 μm
Particle Size D (0.9) [2, 5]: 133.3 μm
% Released (IDR) ([3]; 0.01N 2HCl, t = 0 mins): 0%
% Released (IDR) ([3]; 0.01N 2HCl, t = 5 mins): 80% and 70%
% Released (IDR) ([3]; 0.01N 2HCl, t = 10 mins): 100% and 97%
% Released (IDR) ([3]; 0.01N 2HCl, t = 15 mins): 101% and 98%
% Released (IDR) ([3]; 0.01N 2HCl, t = 30 mins): 102% and 99%
% Released (IDR) ([3]; 0.01N 2HCl, t = 60 mins): 101% and 98%
% Released (IDR) ([3]; Phosphate buffer pH 6.8, t = 0 mins): 0%
% Released (IDR) ([3]; Phosphate buffer pH 6.8, t = 5 mins): 68% and 60%
% Released (IDR) ([3]; Phosphate buffer pH 6.8, t = 10 mins): 85% and 81%
% Released (IDR) ([3]; Phosphate buffer pH 6.8, t = 15 mins): 72% and 83%
% Released (IDR) ([3]; Phosphate buffer pH 6.8, t = 30 mins): 73% and 77%
% Released (IDR) ([3]; Phosphate buffer pH 6.8, t = 60 mins): 59% and 60%
% Released (IDR) ([3]; Water, t = 0 mins): 0%
% Released (IDR) ([3]; Water, t = 5 mins): 84% and 71%
% Released (IDR) ([3]; Water, t = 10 mins): 101% and 98%
% Released (IDR) ([3]; Water, t = 15 mins): 101% and 100%
% Released (IDR) ([3]; Water, t = 30 mins): 100% and 102%
% Released (IDR) ([3]; Water, t = 60 mins): 100%
Bulk Density [4]: 0.63 g/mL
Carr's Index [4]: 24.29%
Tap Density [4]: 0.83 g/mL
Compound: Cc1ccccc1-c1cc(N2CCN(C)CC2)ncc1C(=O)N(C)Cc1cc(C(F)(F)F)cc(C(F)(F)F)c1 [Compound (Ia) 2HCl]
